Measured values published in PubChem BioAssay AID248 (DTP/NCI, 2004).
Several values for one entry are separate records, joined by “and”; a condition that tells them apart may be missing. Equal values may be shown once. Inconclusive results and toxic doses are left out.

Test system: L1210 leukemia ip in BDF1 mice, survival T/C
Assay: NCI In Vivo Anticancer Drug Screen. Data for tumor model L1210 Leukemia (intraperitoneal) in B6D2F1 (BDF1) mice
Settings: higher = longer survival
Summary of the method: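 In this screen, tumor-bearing mice given compound are compared to those given vehicle, and their survival values are reported as a treated-to-control quotient.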

C[C@H](N)C(=O)N[C@@H]1[C@H]2C(=C(O)C[C@@H](O)[C@@H]2O)C(=O)O[C@@H]1C was tested, and the T/C (endpoint: mean survival time, dose: 16.0 mg/kg/injection, schedule: Q01DX Z (ip), vehicle: carboxymethylcellulose (CMC)) was 100 % of control, the T/C (endpoint: mean survival time, dose: 31.0 mg/kg/injection, schedule: Q01DX Z (ip), vehicle: carboxymethylcellulose (CMC)) was 97 % of control and the T/C (endpoint: mean survival time, dose: 37.5 mg/kg/injection, schedule: Q01DX010 (ip), vehicle: saline) was 102 % of control and 104 % of control. For the same compound, the T/C (endpoint: mean survival time, dose: 50.0 mg/kg/injection, schedule: Q01DX001 (ip), vehicle: saline) was 105 % of control, the T/C (endpoint: mean survival time, dose: 50.0 mg/kg/injection, schedule: Q#A X Z (ip), vehicle: saline) was 120 % of control and the T/C (endpoint: mean survival time, dose: 62.0 mg/kg/injection, schedule: Q01DX Z (ip), vehicle: carboxymethylcellulose (CMC)) was 112 % of control. The T/C (endpoint: mean survival time, dose: 75.0 mg/kg/injection, schedule: Q01DX010 (ip), vehicle: saline) was 104 % of control, the T/C (endpoint: mean survival time, dose: 88.0 mg/kg/injection, schedule: Q01DX015 (ip), vehicle: saline) was 118 % of control and the T/C (endpoint: mean survival time, dose: 100.0 mg/kg/injection, schedule: Q01DX001 (ip), vehicle: saline) was 104 % of control. The T/C (endpoint: mean survival time, dose: 100.0 mg/kg/injection, schedule: Q01DX006 (iv), vehicle: saline) was 101 % of control, the T/C (endpoint: mean survival time, dose: 100.0 mg/kg/injection, schedule: Q01DX Z (im), vehicle: saline) was 98 % of control and the T/C (endpoint: mean survival time, dose: 100.0 mg/kg/injection, schedule: Q01DX Z (sc), vehicle: saline) was 102 % of control. The T/C (endpoint: mean survival time, dose: 125.0 mg/kg/injection, schedule: Q01DX Z (ip), vehicle: carboxymethylcellulose (CMC)) was 124 % of control, the T/C (endpoint: mean survival time, dose: 125.0 mg/kg/injection, schedule: Q01DX Z (ip), vehicle: saline) was 116 % of control and the T/C (endpoint: mean survival time, dose: 130.0 mg/kg/injection, schedule: Q01DX015 (ip), vehicle: saline) was 114 % of control. The T/C (endpoint: mean survival time, dose: 150.0 mg/kg/injection, schedule: Q01DX005 (ip), vehicle: saline) was 104 % of control, the T/C (endpoint: mean survival time, dose: 150.0 mg/kg/injection, schedule: Q03HX016 (ip), vehicle: saline) was 103 % of control and the T/C (endpoint: mean survival time, dose: 150.0 mg/kg/injection, schedule: Q08DX002 (ip), vehicle: saline) was 116 % of control. For the same compound, the T/C (endpoint: mean survival time, dose: 200.0 mg/kg/injection, schedule: Q01DX001 (ip), vehicle: saline) was 110 % of control, the T/C (endpoint: mean survival time, dose: 200.0 mg/kg/injection, schedule: Q01DX006 (iv), vehicle: saline) was 104 % of control and the T/C (endpoint: mean survival time, dose: 200.0 mg/kg/injection, schedule: Q01DX015 (ip), vehicle: saline) was 120 % of control. The T/C (endpoint: mean survival time, dose: 200.0 mg/kg/injection, schedule: Q01DX Z (im), vehicle: saline) was 110 % of control, the T/C (endpoint: mean survival time, dose: 200.0 mg/kg/injection, schedule: Q01DX Z (sc), vehicle: saline) was 116 % of control and the T/C (endpoint: mean survival time, dose: 268.0 mg/kg/injection, schedule: Q## X004 (ip), vehicle: saline) was 108 % of control. For the same compound, the T/C (endpoint: mean survival time, dose: 300.0 mg/kg/injection, schedule: Q01DX001 (sc), vehicle: saline) was 96 % of control, the T/C (endpoint: mean survival time, dose: 300.0 mg/kg/injection, schedule: Q01DX005 (ip), vehicle: saline) was 116 % of control and the T/C (endpoint: mean survival time, dose: 300.0 mg/kg/injection, schedule: Q01DX009 (sc), vehicle: saline) was 113 % of control. For the same compound, the T/C (endpoint: mean survival time, dose: 300.0 mg/kg/injection, schedule: Q01DX Z (ip), vehicle: saline) was 160 % of control, the T/C (endpoint: mean survival time, dose: 300.0 mg/kg/injection, schedule: Q03HX016 (ip), vehicle: saline) was 110 % of control and the T/C (endpoint: mean survival time, dose: 300.0 mg/kg/injection, schedule: Q03HX024 (ip), vehicle: saline) was 109 % of control. The T/C (endpoint: mean survival time, dose: 300.0 mg/kg/injection, schedule: Q04DX003 (ip), vehicle: saline) was 119 % of control, the T/C (endpoint: mean survival time, dose: 300.0 mg/kg/injection, schedule: Q08DX002 (ip), vehicle: saline) was 111 % of control and the T/C (endpoint: mean survival time, dose: 320.0 mg/kg/injection, schedule: Q01DX015 (ip), vehicle: saline) was 156 % of control and 174 % of control. For the same compound, the T/C (endpoint: mean survival time, dose: 333.0 mg/kg/injection, schedule: Q02DX004 (ip), vehicle: saline) was 116 % of control, the T/C (endpoint: mean survival time, dose: 352.0 mg/kg/injection, schedule: Q## X032 (ip), vehicle: saline) was 116 % of control and the T/C (endpoint: mean survival time, dose: 400.0 mg/kg/injection, schedule: Q01DX001 (ip), vehicle: saline) was 105 % of control. For the same compound, the T/C (endpoint: mean survival time, dose: 400.0 mg/kg/injection, schedule: Q01DX006 (iv), vehicle: saline) was 113 % of control, the T/C (endpoint: mean survival time, dose: 400.0 mg/kg/injection, schedule: Q01DX013 (ip), vehicle: saline) was 178 % of control and the T/C (endpoint: mean survival time, dose: 400.0 mg/kg/injection, schedule: Q01DX Z (ip), vehicle: saline) was 151 % of control. The T/C (endpoint: mean survival time, dose: 400.0 mg/kg/injection, schedule: Q01DX Z (oral), vehicle: saline) was 104 % of control, the T/C (endpoint: mean survival time, dose: 400.0 mg/kg/injection, schedule: Q## X004 (ip), vehicle: saline) was 113 % of control and the T/C (endpoint: mean survival time, dose: 450.0 mg/kg/injection, schedule: Q01DX015 (ip), vehicle: saline) was 155 % of control. For the same compound, the T/C (endpoint: mean survival time, dose: 536.0 mg/kg/injection, schedule: Q## X032 (ip), vehicle: saline) was 119 % of control and 120 % of control, the T/C (endpoint: mean survival time, dose: 600.0 mg/kg/injection, schedule: Q01DX001 (sc), vehicle: saline) was 105 % of control and the T/C (endpoint: mean survival time, dose: 600.0 mg/kg/injection, schedule: Q01DX005 (ip), vehicle: saline) was 118 % of control. The T/C (endpoint: mean survival time, dose: 600.0 mg/kg/injection, schedule: Q01DX009 (sc), vehicle: saline) was 119 % of control, the T/C (endpoint: mean survival time, dose: 600.0 mg/kg/injection, schedule: Q03HX016 (ip), vehicle: saline) was 110 % of control and the T/C (endpoint: mean survival time, dose: 600.0 mg/kg/injection, schedule: Q03HX024 (ip), vehicle: saline) was 115 % of control. For the same compound, the T/C (endpoint: mean survival time, dose: 600.0 mg/kg/injection, schedule: Q04DX003 (ip), vehicle: saline) was 119 % of control, the T/C (endpoint: mean survival time, dose: 600.0 mg/kg/injection, schedule: Q08DX002 (ip), vehicle: saline) was 113 % of control and the T/C (endpoint: mean survival time, dose: 600.0 mg/kg/injection, schedule: Q## X004 (ip), vehicle: saline) was 111 % of control. For the same compound, the T/C (endpoint: mean survival time, dose: 656.0 mg/kg/injection, schedule: Q01DX015 (ip), vehicle: carboxymethylcellulose (CMC)) was 162 % of control, the T/C (endpoint: mean survival time, dose: 700.0 mg/kg/injection, schedule: Q01DX001 (ip), vehicle: saline) was 110 % of control and 117 % of control and the T/C (endpoint: mean survival time, dose: 700.0 mg/kg/injection, schedule: Q07DX Z (ip), vehicle: saline) was 114 % of control. For the same compound, the T/C (endpoint: mean survival time, dose: 800.0 mg/kg/injection, schedule: Q01DX Z (im), vehicle: saline) was 176 % of control, the T/C (endpoint: mean survival time, dose: 800.0 mg/kg/injection, schedule: Q01DX Z (oral), vehicle: saline) was 108 % of control and the T/C (endpoint: mean survival time, dose: 800.0 mg/kg/injection, schedule: Q01DX Z (sc), vehicle: saline) was 174 % of control. For the same compound, the T/C (endpoint: mean survival time, dose: 800.0 mg/kg/injection, schedule: Q## X032 (ip), vehicle: saline) was 117 % of control, the T/C (endpoint: mean survival time, dose: 900.0 mg/kg/injection, schedule: Q## X004 (ip), vehicle: saline) was 122 % of control and the T/C (endpoint: mean survival time, dose: 1084.0 mg/kg/injection, schedule: Q01DX001 (ip), vehicle: saline) was 94 % of control and 95 % of control. For the same compound, the T/C (endpoint: mean survival time, dose: 1200.0 mg/kg/injection, schedule: Q01DX001 (sc), vehicle: saline) was 101 % of control, the T/C (endpoint: mean survival time, dose: 1200.0 mg/kg/injection, schedule: Q03HX016 (ip), vehicle: saline) was 111 % of control and the T/C (endpoint: mean survival time, dose: 1200.0 mg/kg/injection, schedule: Q## X032 (ip), vehicle: saline) was 120 % of control and 121 % of control. The T/C (endpoint: mean survival time, dose: 1300.0 mg/kg/injection, schedule: Q01DX001 (ip), vehicle: saline) was 106 % of control, the T/C (endpoint: mean survival time, dose: 1350.0 mg/kg/injection, schedule: Q## X004 (ip), vehicle: saline) was 122 % of control and the T/C (endpoint: mean survival time, dose: 1400.0 mg/kg/injection, schedule: Q01DX001 (ip), vehicle: saline) was 106 % of control and 119 % of control. The T/C (endpoint: mean survival time, dose: 1400.0 mg/kg/injection, schedule: Q07DX Z (ip), vehicle: saline) was 120 % of control, the T/C (endpoint: mean survival time, dose: 1491.0 mg/kg/injection, schedule: Q01DX015 (ip), vehicle: carboxymethylcellulose (CMC)) was 155 % of control and the T/C (endpoint: mean survival time, dose: 1600.0 mg/kg/injection, schedule: Q01DX Z (im), vehicle: saline) was 160 % of control. The T/C (endpoint: mean survival time, dose: 1600.0 mg/kg/injection, schedule: Q01DX Z (oral), vehicle: saline) was 106 % of control, the T/C (endpoint: mean survival time, dose: 1650.0 mg/kg/injection, schedule: Q01DX001 (ip), vehicle: saline) was 96 % of control and 97 % of control and the T/C (endpoint: mean survival time, dose: 1687.0 mg/kg/injection, schedule: Q02DX004 (ip), vehicle: saline) was 166 % of control. The T/C (endpoint: mean survival time, dose: 2000.0 mg/kg/injection, schedule: Q01DX001 (ip), vehicle: saline) was 120 % of control, the T/C (endpoint: mean survival time, dose: 2024.0 mg/kg/injection, schedule: Q01DX001 (ip), vehicle: saline) was 115 % of control and the T/C (endpoint: mean survival time, dose: 2237.0 mg/kg/injection, schedule: Q01DX015 (ip), vehicle: carboxymethylcellulose (CMC)) was 108 % of control. The T/C (endpoint: mean survival time, dose: 2400.0 mg/kg/injection, schedule: Q01DX001 (sc), vehicle: saline) was 104 % of control, the T/C (endpoint: mean survival time, dose: 2400.0 mg/kg/injection, schedule: Q03HX016 (ip), vehicle: saline) was 119 % of control and the T/C (endpoint: mean survival time, dose: 2400.0 mg/kg/injection, schedule: Q08DX002 (ip), vehicle: saline) was 122 % of control. For the same compound, the T/C (endpoint: mean survival time, dose: 2464.0 mg/kg/injection, schedule: Q01DX001 (ip), vehicle: saline) was 100 % of control, the T/C (endpoint: mean survival time, dose: 2800.0 mg/kg/injection, schedule: Q01DX001 (ip), vehicle: saline) was 123 % of control and the T/C (endpoint: mean survival time, dose: 2800.0 mg/kg/injection, schedule: Q07DX Z (ip), vehicle: saline) was 119 % of control. For the same compound, the T/C (endpoint: mean survival time, dose: 3000.0 mg/kg/injection, schedule: Q01DX001 (ip), vehicle: saline) was 115 % of control, the T/C (endpoint: mean survival time, dose: 3200.0 mg/kg/injection, schedule: Q01DX Z (oral), vehicle: saline) was 108 % of control and the T/C (endpoint: median survival time, dose: 75.0 mg/kg/injection, schedule: Q01DX009 (ip), vehicle: saline) was 113 % of control. The T/C (endpoint: median survival time, dose: 133.0 mg/kg/injection, schedule: Q04DX003 (ip), vehicle: saline) was 97 % of control, the T/C (endpoint: median survival time, dose: 266.0 mg/kg/injection, schedule: Q04DX003 (ip), vehicle: saline) was 101 % of control and the T/C (endpoint: median survival time, dose: 532.0 mg/kg/injection, schedule: Q04DX003 (ip), vehicle: saline) was 110 % of control. The T/C (endpoint: median survival time, dose: 600.0 mg/kg/injection, schedule: Q01DX009 (ip), vehicle: saline) was 160 % of control and the T/C (endpoint: median survival time, dose: 1200.0 mg/kg/injection, schedule: Q01DX009 (ip), vehicle: saline) was 180 % of control.
